Reference: patent US20220306626A1, “CRYSTALLINE FORM OF A DIHYDROCHLORIDE SALT OF A JAK INHIBITOR COMPOUND” (Theravance Biopharma R&D IP, LLC, priority 2021, published 2022)
Read-outs that look alike come from different tables or passages of the source.

Columns and labels:
JAK1 = JAK1 (Homo sapiens, UniProt P23458); conditions: cited from earlier work
JAK2 = JAK2 (Homo sapiens, UniProt O60674); conditions: cited from earlier work
JAK3 = target: T1, JAK3 (Homo sapiens, UniProt P52333); conditions: cited from earlier work
T1 sequence (P52333 1-1124): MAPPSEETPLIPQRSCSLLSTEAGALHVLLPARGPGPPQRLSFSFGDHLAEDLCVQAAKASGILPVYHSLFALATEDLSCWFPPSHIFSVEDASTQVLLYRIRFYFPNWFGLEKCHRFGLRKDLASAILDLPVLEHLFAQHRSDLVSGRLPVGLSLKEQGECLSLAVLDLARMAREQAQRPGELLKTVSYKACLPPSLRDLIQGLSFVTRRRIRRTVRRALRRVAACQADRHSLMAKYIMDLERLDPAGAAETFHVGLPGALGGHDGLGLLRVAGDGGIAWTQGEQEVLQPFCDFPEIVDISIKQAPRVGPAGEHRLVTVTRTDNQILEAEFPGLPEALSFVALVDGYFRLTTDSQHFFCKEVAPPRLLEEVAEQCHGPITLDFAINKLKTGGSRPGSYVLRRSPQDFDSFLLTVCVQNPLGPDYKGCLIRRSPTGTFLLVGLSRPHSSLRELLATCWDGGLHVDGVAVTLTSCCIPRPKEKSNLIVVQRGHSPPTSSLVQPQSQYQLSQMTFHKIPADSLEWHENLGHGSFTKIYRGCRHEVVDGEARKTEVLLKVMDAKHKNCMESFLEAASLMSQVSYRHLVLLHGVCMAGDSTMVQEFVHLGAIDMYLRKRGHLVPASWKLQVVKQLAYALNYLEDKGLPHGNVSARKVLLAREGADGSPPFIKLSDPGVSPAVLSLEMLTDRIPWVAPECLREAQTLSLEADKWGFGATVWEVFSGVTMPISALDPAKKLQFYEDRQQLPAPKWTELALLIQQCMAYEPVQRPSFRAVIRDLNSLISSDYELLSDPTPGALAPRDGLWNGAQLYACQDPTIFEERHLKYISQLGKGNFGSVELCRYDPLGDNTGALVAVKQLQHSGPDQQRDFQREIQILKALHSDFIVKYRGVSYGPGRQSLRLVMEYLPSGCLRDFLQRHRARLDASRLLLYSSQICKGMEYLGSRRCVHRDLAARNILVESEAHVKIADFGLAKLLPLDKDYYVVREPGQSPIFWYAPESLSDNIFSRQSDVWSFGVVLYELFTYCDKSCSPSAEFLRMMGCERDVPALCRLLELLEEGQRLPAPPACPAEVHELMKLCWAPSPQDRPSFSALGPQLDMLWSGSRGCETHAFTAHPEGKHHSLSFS

TYK2 = TYK2 (Homo sapiens, UniProt P29597); conditions: cited from earlier work
[1] = system: pro-inflammatory and pro-fibrotic cytokines; conditions: cited from earlier work
[2] = in vivo; cited from earlier work
[3] = Dynamic moisture sorption (DMS) assessment; type: physicochemical
Procedure: Dynamic moisture sorption (DMS) measurement was performed using a VTI atmospheric microbalance, SGA-100 system (VTI Corp., Hialeah, Fla. 33016). A weighed sample was used and the humidity was at the lowest possible value (close to 0% RH) at the start of the analysis. The DMS analysis consisted of an initial drying step (˜0% RH) for 16 hours, followed by two cycles of sorption and desorption with a scan rate of 5% RH/step over the humidity range of 5% RH to 90% RH. The DMS run was performed isothermally at 25° C.

[4] = Stability study, storage at 40° C. and 75% relative humidity, analysed by HPLC; type: physicochemical
Procedure: Samples of the crystalline form were stored in glass vials with screw caps at 40° C. and 75% relative humidity (RH). At specific intervals, the contents of a representative sample were removed and analyzed by HPLC for assay and chemical purity as shown in Table 3.

[5] = Solubility of the crystalline form in water and Simulated Lung Fluid; type: physicochemical
Procedure: The solubility of the crystalline form was assessed in water and Simulated Lung Fluid (SLF). The crystalline form was dispersed in liquid media in multiple vials to form slurries, with each vial containing about 7.5 mg of the crystalline form and 0.5 mL of the liquid media. The slurries were agitated in a thermo-shaker at 25° C. and samples were collected from different vials at approximately 5, 15, 30, 60 minutes, and 24 hours. At each of the timepoints, the slurries were centrifuged for 10 minutes. The supernatant was collected and centrifuged for another 10 minutes. Solubility at each timepoint is determined by analyzing the compound concentration in the supernatant using HPLC. SLF composition: 0.4% NaCl, 0.02% DPPC in 50 mM phosphate buffer pH 6.9

[6] = Thermogravimetric analysis (TGA); type: physicochemical; conditions: heating rate of 10° C., ambient to 360° C., nitrogen
Procedure: Thermogravimetric analysis (TGA) measurements were performed using a TA Instruments Model Q-50 module equipped with high resolution capability. Data were collected using TA Instruments Thermal Analyst controller and analyzed using TA Instruments Universal Analysis software. A weighed sample was placed onto a platinum pan and scanned with a heating rate of 10° C. from ambient temperature to 360° C. The balance and furnace chambers were purged with nitrogen flow during use. The crystalline form decomposes at an onset temperature of about 285° C.

[7] = T = 3 Months, 40° C. and 75% RH
[8] = T = 6 Months, 40° C. and 75% RH

Chain of JAK1 (P23458 whole entry): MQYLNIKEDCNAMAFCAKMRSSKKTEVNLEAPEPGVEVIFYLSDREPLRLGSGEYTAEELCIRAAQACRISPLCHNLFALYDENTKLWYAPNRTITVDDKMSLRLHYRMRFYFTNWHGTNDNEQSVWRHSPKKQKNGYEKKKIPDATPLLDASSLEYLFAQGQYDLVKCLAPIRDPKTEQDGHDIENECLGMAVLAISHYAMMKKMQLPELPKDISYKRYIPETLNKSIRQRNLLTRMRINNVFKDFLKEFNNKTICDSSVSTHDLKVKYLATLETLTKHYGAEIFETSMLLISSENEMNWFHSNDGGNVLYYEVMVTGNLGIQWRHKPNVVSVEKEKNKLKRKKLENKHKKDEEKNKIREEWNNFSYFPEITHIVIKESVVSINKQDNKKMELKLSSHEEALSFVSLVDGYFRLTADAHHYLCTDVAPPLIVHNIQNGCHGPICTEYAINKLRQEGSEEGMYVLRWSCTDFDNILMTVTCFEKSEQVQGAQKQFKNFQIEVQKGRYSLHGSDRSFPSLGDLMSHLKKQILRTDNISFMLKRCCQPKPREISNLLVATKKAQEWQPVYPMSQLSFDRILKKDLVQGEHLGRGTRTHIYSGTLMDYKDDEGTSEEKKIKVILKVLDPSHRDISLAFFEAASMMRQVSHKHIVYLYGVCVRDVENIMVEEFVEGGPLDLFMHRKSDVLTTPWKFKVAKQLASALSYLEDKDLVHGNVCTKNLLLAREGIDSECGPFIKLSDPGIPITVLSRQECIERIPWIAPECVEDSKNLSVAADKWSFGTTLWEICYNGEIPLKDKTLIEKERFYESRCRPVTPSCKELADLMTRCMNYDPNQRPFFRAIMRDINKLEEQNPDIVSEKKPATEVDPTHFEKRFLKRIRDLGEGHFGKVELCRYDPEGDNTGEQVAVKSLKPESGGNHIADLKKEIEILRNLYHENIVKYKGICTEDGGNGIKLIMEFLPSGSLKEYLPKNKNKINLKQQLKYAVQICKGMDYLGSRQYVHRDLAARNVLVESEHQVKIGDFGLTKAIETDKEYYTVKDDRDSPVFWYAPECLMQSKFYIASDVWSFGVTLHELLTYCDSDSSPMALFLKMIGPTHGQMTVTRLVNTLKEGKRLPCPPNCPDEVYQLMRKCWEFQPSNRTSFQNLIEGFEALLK
Chain of JAK2 (O60674 whole entry): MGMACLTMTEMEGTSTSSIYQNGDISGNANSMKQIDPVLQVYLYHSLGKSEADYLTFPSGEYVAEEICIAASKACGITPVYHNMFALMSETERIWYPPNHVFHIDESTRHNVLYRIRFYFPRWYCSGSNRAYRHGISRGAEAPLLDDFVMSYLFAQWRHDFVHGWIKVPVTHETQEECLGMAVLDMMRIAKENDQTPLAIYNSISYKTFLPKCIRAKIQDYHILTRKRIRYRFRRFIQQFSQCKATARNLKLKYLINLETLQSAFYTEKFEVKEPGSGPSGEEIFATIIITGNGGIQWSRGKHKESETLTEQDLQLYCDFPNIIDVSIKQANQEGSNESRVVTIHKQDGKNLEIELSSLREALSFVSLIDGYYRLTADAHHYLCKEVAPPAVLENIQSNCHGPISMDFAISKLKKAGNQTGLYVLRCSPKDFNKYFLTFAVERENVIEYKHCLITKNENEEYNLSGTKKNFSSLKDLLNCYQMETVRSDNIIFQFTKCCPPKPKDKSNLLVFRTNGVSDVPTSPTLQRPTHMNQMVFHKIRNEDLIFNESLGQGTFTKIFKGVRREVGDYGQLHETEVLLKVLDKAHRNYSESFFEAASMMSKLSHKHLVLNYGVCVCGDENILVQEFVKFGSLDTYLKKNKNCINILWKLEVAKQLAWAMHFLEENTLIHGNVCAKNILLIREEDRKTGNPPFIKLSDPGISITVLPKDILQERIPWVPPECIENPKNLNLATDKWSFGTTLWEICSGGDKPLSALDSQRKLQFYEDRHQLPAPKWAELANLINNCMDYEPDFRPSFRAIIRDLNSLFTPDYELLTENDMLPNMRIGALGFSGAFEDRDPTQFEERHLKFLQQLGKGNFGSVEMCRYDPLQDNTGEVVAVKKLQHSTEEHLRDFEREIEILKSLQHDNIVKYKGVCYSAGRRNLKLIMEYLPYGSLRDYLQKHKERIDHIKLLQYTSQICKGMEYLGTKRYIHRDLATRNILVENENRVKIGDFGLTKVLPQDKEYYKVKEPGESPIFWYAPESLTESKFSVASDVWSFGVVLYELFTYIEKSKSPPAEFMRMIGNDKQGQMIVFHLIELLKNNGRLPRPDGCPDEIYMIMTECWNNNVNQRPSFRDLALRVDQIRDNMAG
Chain of TYK2 (P29597 whole entry): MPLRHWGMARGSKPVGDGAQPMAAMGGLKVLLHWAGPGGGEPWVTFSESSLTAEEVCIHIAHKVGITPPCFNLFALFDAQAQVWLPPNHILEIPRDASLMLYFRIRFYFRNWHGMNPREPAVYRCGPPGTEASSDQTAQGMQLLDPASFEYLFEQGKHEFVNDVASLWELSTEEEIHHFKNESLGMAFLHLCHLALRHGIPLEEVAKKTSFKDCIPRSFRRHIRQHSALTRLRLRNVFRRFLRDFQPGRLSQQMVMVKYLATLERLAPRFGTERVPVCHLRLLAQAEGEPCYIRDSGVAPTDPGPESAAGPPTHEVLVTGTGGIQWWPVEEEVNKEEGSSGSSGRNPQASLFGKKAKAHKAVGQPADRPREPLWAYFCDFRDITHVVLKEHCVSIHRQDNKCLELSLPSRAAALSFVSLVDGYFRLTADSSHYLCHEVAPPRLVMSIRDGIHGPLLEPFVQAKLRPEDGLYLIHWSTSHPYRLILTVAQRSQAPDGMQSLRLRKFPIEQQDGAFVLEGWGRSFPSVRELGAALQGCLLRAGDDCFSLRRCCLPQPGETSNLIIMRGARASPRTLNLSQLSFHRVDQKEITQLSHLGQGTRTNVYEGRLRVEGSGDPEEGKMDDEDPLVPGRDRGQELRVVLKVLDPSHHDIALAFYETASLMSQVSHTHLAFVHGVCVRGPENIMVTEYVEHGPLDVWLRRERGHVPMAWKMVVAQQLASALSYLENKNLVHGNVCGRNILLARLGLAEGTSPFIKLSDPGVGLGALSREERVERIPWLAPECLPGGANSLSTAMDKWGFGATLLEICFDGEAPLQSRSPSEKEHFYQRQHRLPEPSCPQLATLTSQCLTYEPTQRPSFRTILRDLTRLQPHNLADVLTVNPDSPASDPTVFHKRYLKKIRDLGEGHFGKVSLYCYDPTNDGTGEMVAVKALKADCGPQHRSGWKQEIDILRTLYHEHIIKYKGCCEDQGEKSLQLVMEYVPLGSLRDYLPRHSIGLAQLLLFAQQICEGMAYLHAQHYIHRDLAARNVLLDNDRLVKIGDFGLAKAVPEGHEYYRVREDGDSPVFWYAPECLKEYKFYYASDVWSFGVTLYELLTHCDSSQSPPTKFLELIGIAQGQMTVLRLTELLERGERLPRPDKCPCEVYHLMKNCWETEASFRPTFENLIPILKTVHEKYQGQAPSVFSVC

CCc1cc(O)c(F)cc1-c1ccc2c(-c3nc4c([nH]3)CCN(C3CCN(C)CC3)C4)n[nH]c2c1 [compound 1, 5-ethyl-2-fluoro-4-(3-(5-(1-methylpiperidin-4-yl)-4,5,6,7-tetrahydro-1H-imidazo[4,5-c]pyridin-2-yl)-1H-indazol-6-yl)phenol]
inhibition of JAK1 (in words) (JAK1): potent inhibitor | inhibition of JAK2 (in words) (JAK2): potent inhibitor | inhibition of JAK3 (in words) (JAK3): potent inhibitor | inhibition of TYK2 (in words) (TYK2): potent inhibitor | inhibition of pro-inflammatory and pro-fibrotic cytokines (in words) [1]: potent inhibition | lung retention (in words) [2]: significant lung retention

CCc1cc(O)c(F)cc1-c1ccc2c(-c3nc4c([nH]3)CCN(C3CCN(C)CC3)C4)n[nH]c2c1 [crystalline form, 5-ethyl-2-fluoro-4-(3-(5-(1-methylpiperidin-4-yl)-4,5,6,7-tetrahydro-1H-imidazo[4,5-c]pyridin-2-yl)-1H-indazol-6-yl)phenol, 2HCl Crystalline Form]
change in form after two cycles of moisture sorption and desorption ([3]; 5% RH to 90% RH, 25° C.): no change in form | total moisture uptake ([3]; relative humidity between about 5% and about 90%, room temperature (25° C.)): about 0.8% | Assay % w/w ([4]; T = 0): 85.0 % w/w | HPLC purity % a/a ([4]; T = 0): 98.7 % a/a | Assay % w/w ([4]; T = 1 Week, 40° C. and 75% RH): 86.8 % w/w | HPLC purity % a/a ([4]; T = 1 Week, 40° C. and 75% RH): 98.7 % a/a | Assay % w/w ([4]; T = 2 Weeks, 40° C. and 75% RH): 85.1 % w/w | HPLC purity % a/a ([4]; T = 2 Weeks, 40° C. and 75% RH): 98.7 % a/a | Assay % w/w [4, 7]: 84.5 % w/w | HPLC purity % a/a [4, 7]: 98.7 % a/a | Assay % w/w ([4]; T = 4 Weeks, 40° C. and 75% RH): 86.9 % w/w | HPLC purity % a/a ([4]; T = 4 Weeks, 40° C. and 75% RH): 98.7 % a/a | Assay % w/w [4, 8]: 85.1 % w/w | HPLC purity % a/a [4, 8]: 98.5 % a/a | change in purity or assay ([4]; after 6 months at 40° C. and 75% RH): no significant change | solubility at 30 min ([5]; Simulated Lung Fluid (SLF), fassgf or other biorelevant, thermodynamic from solid, Simulated Lung Fluid pH 6.9, 25° C., 30 minutes): 210 µg/mL | solubility at 24 h ([5]; Simulated Lung Fluid (SLF), pH 6.9, fassgf or other biorelevant, thermodynamic from solid, Simulated Lung Fluid, 25° C., read-out: solubility in SLF): 70 µg/mL | solubility in simulated lung fluid (in words) ([5]; simulated lung fluid): good solubility | solubility at 60 min ([5]; thermodynamic from solid, water, 25° C., 60 minutes): 8900 µg/mL | solubility at 24 h ([5]; thermodynamic from solid, water, 25° C., read-out: solubility in water): 3200 µg/mL | solubility in water (in words) ([5]; water): good solubility | decomposition onset temperature (TGA) [6]: about 285 °C
